Experimental data published in the NIST ThermoML archive (doi:10.1021/je800110r).

Settings: 283.15 K, Liquid, Vibrating tube method

CCCCCCCCCC [decane]
Settings	mass density [kg/m3]
3625 kPa	740.1
3634 kPa	740.1
3651 kPa	740.3
3666 kPa	740.1
3675 kPa	740.1
3689 kPa	740
3701 kPa	740.1
3713 kPa	740.1
3724 kPa	740.1
3735 kPa	740.2
3748 kPa	740.2
3759 kPa	740
3774 kPa	740.2
3789 kPa	740.1
3800 kPa	740.1
3899 kPa	740.2
3917 kPa	740.3
3930 kPa	740.1
3945 kPa	740.3
3957 kPa	740.3
3968 kPa	740.3
3982 kPa	740.4
3992 kPa	740.4
4007 kPa	740.4
4017 kPa	740.3
4031 kPa	740.3
4042 kPa	740.3
4055 kPa	740.3
4085 kPa	740.4
4096 kPa	740.2
4114 kPa	740.5
4129 kPa	740.3
4147 kPa	740.4
4160 kPa	740.5
4179 kPa	740.5
4197 kPa	740.4
4212 kPa	740.5
4229 kPa	740.4
4247 kPa	740.5
4263 kPa	740.4
4277 kPa	740.5
4292 kPa	740.5
4306 kPa	740.6
4321 kPa	740.4
4333 kPa	740.6
4349 kPa	740.5
4362 kPa	740.6
4394 kPa	740.6
4410 kPa	740.5
4424 kPa	740.5
4437 kPa	740.5
4455 kPa	740.7
4468 kPa	740.6
4484 kPa	740.7
4499 kPa	740.7
4514 kPa	740.7
4533 kPa	740.6
4549 kPa	740.8
4565 kPa	740.7
4579 kPa	740.7
4603 kPa	740.8
4628 kPa	740.7
4648 kPa	740.8
4667 kPa	740.7
4770 kPa	740.8
4791 kPa	740.9
4811 kPa	740.9
4835 kPa	740.9
5291 kPa	741.2
5334 kPa	741.3
5356 kPa	741.3
5377 kPa	741.3
5399 kPa	741.3
5421 kPa	741.4
5444 kPa	741.4
5463 kPa	741.4
5486 kPa	741.3
5505 kPa	741.3
5529 kPa	741.5
5549 kPa	741.4
5573 kPa	741.5
5624 kPa	741.5
5644 kPa	741.5
5662 kPa	741.5
5674 kPa	741.4
5686 kPa	741.6
5700 kPa	741.6
5719 kPa	741.6
5736 kPa	741.5
5778 kPa	741.6
5790 kPa	741.5
5806 kPa	741.6
5819 kPa	741.7
5838 kPa	741.6
5851 kPa	741.6
5852 kPa	741.7
5870 kPa	741.7
5887 kPa	741.7
5909 kPa	741.6
5920 kPa	741.7
5926 kPa	741.7
5930 kPa	741.8
5942 kPa	741.8
5960 kPa	741.7
5977 kPa	741.8
5991 kPa	741.8
6008 kPa	741.7
6025 kPa	741.8
6043 kPa	741.7
6063 kPa	741.7
6081 kPa	741.8
6102 kPa	741.8
6122 kPa	741.9
6142 kPa	741.8
6161 kPa	741.9
6626 kPa	742.2
6649 kPa	742.2
6666 kPa	742.3
6683 kPa	742.2
6712 kPa	742.2
6729 kPa	742.3
6755 kPa	742.2
6775 kPa	742.3
6805 kPa	742.3
6826 kPa	742.4
6843 kPa	742.2
6861 kPa	742.4
6877 kPa	742.3
6905 kPa	742.4
6933 kPa	742.4
6948 kPa	742.3
6967 kPa	742.4
6996 kPa	742.4
7021 kPa	742.3
7041 kPa	742.4
7058 kPa	742.5
7077 kPa	742.5
